ChEMBL document CHEMBL1138771, “Novel arylsulfoanilide-oxindole hybrid as an anticancer agent that inhibits translation initiation” (J Med Chem, 2004)

Legend:
[1] = test system: A549; test: Concentration required for growth inhibition of human lung cancer cells (A549); assay type: functional
[2] = test system: NIH 3T3 (Mus musculus); test: Ratio of the peak heights normalized to the peak of clotrimazole as a reference was a measure of intracellular [Ca2+] stores depletion in NIH 3T3 cell
[3] = test system: DU-145; test: Concentration required for growth inhibition of human prostate cancer cells (DU145) was determined; assay type: functional, cell-based

Compound | GI50 [1] [µM] | Ratio [2] | IC50 [3] [µM]
Cc1ccc(NS(=O)(=O)c2ccc(-c3ccccc3)cc2)cc1O | 9 | 0.72 | 
COc1ccc(S(=O)(=O)Nc2ccccc2)cc1 | 16 | 0.63 | 
O=S(=O)(Nc1ccccc1)c1ccccc1 [PHENYL(PHENYLSULFONYL)AMINE] | > 80 | 0 | 
O=S(=O)(Nc1ccccc1)c1ccc(Br)cc1 | 30 | 0.38 | 
Cc1ccccc1NS(=O)(=O)c1ccc(C(C)(C)C)cc1 | > 80 | 0.49 | 
O=[N+]([O-])c1ccc(S(=O)(=O)Nc2ccccc2)cc1 | 52 | 0.13 | 
CN(c1ccccc1)S(=O)(=O)c1ccc(C(C)(C)C)cc1 | 30 | 0.14 | 
Cc1cccc(NS(=O)(=O)c2ccc(C(C)(C)C)cc2)c1 | 80 | 0.95 | 
CC(C)(C)c1ccc(S(=O)(=O)Nc2ccc(O)cc2)cc1 | 14 | 0.33 | 
O=C1Nc2ccccc2C1(c1ccccc1)c1ccccc1 | 13 | 0.87 | 12.5
Cc1ccc(NS(=O)(=O)c2ccc(C(C)(C)C)cc2)cc1O | 6 | 1.12 | 
Cc1ccc(NS(=O)(=O)c2ccc(Br)cc2)cc1O | 20 | 0.27 | 
CC(C)(C)c1ccc(S(=O)(=O)Nc2cccc(O)c2)cc1 | 12 | 0.55 | 
Cc1cc(C2(c3ccccc3)C(=O)Nc3ccccc32)c(NS(=O)(=O)c2ccc(-c3ccccc3)cc2)cc1O (stereo unspecified) | 4 | 0 | 
CC(C)(C)c1ccc(S(=O)(=O)Nc2ccccc2O)cc1 | 13 | 1.17 | 
CC(C)(C)c1ccc(O)c(C2(c3ccccc3)C(=O)Nc3ccccc32)c1 (stereo unspecified) | 3 | 1.1 | 2.49
COc1ccc(S(=O)(=O)Nc2ccc(C)c(O)c2)cc1 | 51 | 0.12 | 
Cc1ccc(NS(=O)(=O)c2ccc([N+](=O)[O-])cc2)cc1O | 29 | 0.14 | 
Cc1ccc(NS(=O)(=O)c2ccc(I)cc2)cc1O | 15 | 0.45 | 
Cc1cc(C2(c3ccccc3)C(=O)Nc3ccccc32)c(NS(=O)(=O)c2ccc(C(C)(C)C)cc2)cc1O (stereo unspecified) | 0.8 | 1.06 | 1.08
O=S(=O)(Nc1ccccc1)c1ccc(I)cc1 | 23 | 0.87 | 
Cc1ccc(NS(=O)(=O)c2ccc(C(C)(C)C)cc2)cc1 | 11 | 1.11 | 
CC(=O)Nc1ccc(S(=O)(=O)Nc2ccc(C)c(O)c2)cc1 | 48 | 0.19 | 
Cc1ccc(NS(=O)(=O)c2ccc(Oc3ccccc3)cc2)cc1O | 7 | 1.1 | 
CC(C)(C)c1ccc(S(=O)(=O)Nc2ccccc2)cc1 | 16 | 1.44 | 
O=S(=O)(Nc1ccccc1)c1ccc(-c2ccccc2)cc1 | 17 | 1.37 | 
Cc1cc(C2(c3ccccc3)C(=O)Nc3ccccc32)c(NS(=O)(=O)c2ccc(Oc3ccccc3)cc2)cc1O (stereo unspecified) | 5 | 0 | 
Cc1ccc(NS(=O)(=O)c2ccc(C(C)(C)C)cc2)c(O)c1 | 8 | 1.44 | 
Cc1cc(O)c(NS(=O)(=O)c2ccc(C(C)(C)C)cc2)cc1C1(c2ccccc2)C(=O)Nc2ccccc21 (stereo unspecified) | > 20 | 0.44 | 
